Laboratory results taken from ChEMBL document CHEMBL1201862, “PubChem BioAssay data set” (2004).
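Each compound was tested at five concentrations against cells in 96-well plates for 48 hours. Here, GI50 denotes the concentration required for 50% inhibition of growth.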 The source made the active and inactive calls. Rule as the data show it: active = GI50 up to about 1.1 µM and inactive = higher.

Experiments:
Assay in all cases: inhibition of tumour cell growth, NCI panel, 48 h
SNB-75 = system: SNB-75
TK-10 = system: TK-10
SF-539 = system: SF-539
T47D = system: T47D
MCF7 = system: MCF7
KM12 = system: KM12
COLO 205 = system: COLO 205
LOX IMVI = system: LOX IMVI
HCT-15 = system: HCT-15
A549 = system: A549
PC-3 = system: PC-3
OVCAR-8 = system: OVCAR-8
SR = system: SR
IGROV-1 = system: IGROV-1
SNB-19 = system: SNB-19
SK-MEL-2 = system: SK-MEL-2
M14 = system: M14
MDA-MB-231 = system: MDA-MB-231
UACC-257 = system: UACC-257
UO-31 = system: UO-31
MDA-N = system: MDA-N
HOP-62 = system: HOP-62
RXF 393 = system: RXF 393
NCI-H226 = system: NCI-H226
MOLT-4 = system: MOLT-4
CCRF-CEM = system: CCRF-CEM
OVCAR-3 = system: OVCAR-3
786-0 = system: 786-0
SK-MEL-28 = system: SK-MEL-28
NCI-H460 = system: NCI-H460
CAKI-1 = system: CAKI-1
OVCAR-5 = system: OVCAR-5
RPMI-8226 = system: RPMI-8226
OVCAR-4 = system: OVCAR-4
SF-295 = system: SF-295
SW-620 = system: SW-620
A498 = system: A498
K562 = system: K562
NCI/ADR-RES = system: NCI/ADR-RES
SK-OV-3 = system: SK-OV-3
SN12C = system: SN12C
DU-145 = system: DU-145
HCT-116 = system: HCT-116
UACC-62 = system: UACC-62
Hs-578T = system: Hs-578T
HL-60 = system: HL-60
HT-29 = system: HT-29
Malme-3M = system: Malme-3M
SF-268 = system: SF-268
BT-549 = system: BT-549
MDA-MB-435 = system: MDA-MB-435
NCI-H522 = system: NCI-H522
U-251 = system: U-251
EKVX = system: EKVX
SK-MEL-5 = system: SK-MEL-5
NCI-H23 = system: NCI-H23
ACHN = system: ACHN

Measured: GI50

COc1ccccc1NC(=S)Nc1cc(C)ccn1
> 100 µM: HCT-15
inactive: SNB-75 > 100 µM | TK-10 > 100 µM | SF-539 > 100 µM | T47D > 100 µM | MCF7 > 100 µM | KM12 > 100 µM | COLO 205 > 100 µM | LOX IMVI > 100 µM | A549 > 100 µM | PC-3 > 100 µM | OVCAR-8 > 100 µM | SR > 100 µM | IGROV-1 74 µM | SNB-19 > 100 µM | SK-MEL-2 > 100 µM | M14 > 100 µM | MDA-MB-231 20 µM | UACC-257 > 100 µM | UO-31 > 100 µM | MDA-N > 100 µM | HOP-62 66.8 µM | RXF 393 96.6 µM | NCI-H226 > 100 µM | MOLT-4 > 100 µM | CCRF-CEM > 100 µM | OVCAR-3 > 100 µM | 786-0 > 100 µM | SK-MEL-28 > 100 µM | NCI-H460 > 100 µM | CAKI-1 > 100 µM | OVCAR-5 > 100 µM | RPMI-8226 > 100 µM | OVCAR-4 > 100 µM | SF-295 > 100 µM | SW-620 > 100 µM | A498 > 100 µM | K562 > 100 µM | NCI/ADR-RES > 100 µM | SK-OV-3 > 100 µM | SN12C > 100 µM | DU-145 > 100 µM | HCT-116 > 100 µM | UACC-62 > 100 µM | Hs-578T > 100 µM | HL-60 > 100 µM | HT-29 > 100 µM | Malme-3M > 100 µM | SF-268 91 µM | BT-549 > 100 µM | MDA-MB-435 > 100 µM | NCI-H522 > 100 µM | U-251 > 100 µM | EKVX > 100 µM | SK-MEL-5 > 100 µM

Nc1ncc2ncn(C3CCC(CO)O3)c2n1 (stereo not given)
> 100 µM: HCT-15
inactive: SNB-75 > 100 µM | TK-10 > 100 µM | NCI-H23 > 100 µM | SF-539 > 100 µM | T47D > 100 µM | MCF7 > 100 µM | KM12 > 100 µM | COLO 205 > 100 µM | LOX IMVI > 100 µM | A549 > 100 µM | PC-3 > 100 µM | OVCAR-8 > 100 µM | SR > 100 µM | IGROV-1 > 100 µM | SNB-19 > 100 µM | SK-MEL-2 > 100 µM | M14 > 100 µM | MDA-MB-231 > 100 µM | UACC-257 > 100 µM | UO-31 > 100 µM | MDA-N > 100 µM | HOP-62 > 100 µM | NCI-H226 > 100 µM | MOLT-4 > 100 µM | CCRF-CEM > 100 µM | OVCAR-3 > 100 µM | 786-0 > 100 µM | SK-MEL-28 > 100 µM | NCI-H460 > 100 µM | CAKI-1 > 100 µM | ACHN > 100 µM | OVCAR-5 > 100 µM | RPMI-8226 > 100 µM | OVCAR-4 > 100 µM | SF-295 > 100 µM | SW-620 > 100 µM | A498 88.7 µM | K562 > 100 µM | NCI/ADR-RES > 100 µM | SK-OV-3 > 100 µM | SN12C > 100 µM | DU-145 > 100 µM | HCT-116 > 100 µM | UACC-62 > 100 µM | Hs-578T > 100 µM | HL-60 > 100 µM | HT-29 > 100 µM | SF-268 > 100 µM | BT-549 > 100 µM | MDA-MB-435 > 100 µM | NCI-H522 > 100 µM | U-251 > 100 µM | EKVX > 100 µM | SK-MEL-5 > 100 µM
